# Like-named read-outs stand apart in the source and are kept apart here.
# How the values were obtained:
# BRAF = BRAF (Homo sapiens (Human), UniProt P15056); assay: BRAF kinase activity assay (ADP-Glo); assay type: biochemical
# Procedure: (§1) Compound preparation: solid samples of each substances in 1 dram vials were suspended in DMSO (Fisher Scientific) at a stock concentration of 20 mM. Stocks were kept at −20° C. and protected from light.
# (§2) In vitro enzymatic reactions were used for evaluating compounds intrinsic activity against BRAF, CRAF and ARAF. […] Separate reactions were performed with the MEK1 substrate and ATP as a blank control.
# (§3) For compound treatment, 5 μL/well of test substance solution are placed in a 384-well proxyplate (Perkin Elmer) and mixed with 2× concentrated kinase reactions. The dilution series is selected so that nine concentrations cover a range from 100 nM to 0.01 nM. […] The final concentration of DMSO in the assay is set at 0.05%.
# (§4) BRAF and CRAF kinase reactions were carried out for a total of 2 hours at 30° C. and then stopped by ½ dilution in ADP-Glo Reagent (cat #V9102; Promega; part V912C). Reactions were then incubated for 1h at room temperature before addition of one volume of Kinase Detection Reagent (cat #V9102; Promega; part V917A). Plates were then equilibrated at room temperature for 30 minutes before detection of luminescence on a Synergy Neo2 plate reader (Biotek). The effect of each compound dilution on BRAF and CRAF kinase activity was expressed as % inhibition and calculated as follows.
# (§5) IC50 values were obtained by plotting the kinase inhibition values and fitting the dose-activity curves using a log(agonist) versus response-variable slope (four parameters) function using either GraphPadPrism (V7.0) or Dotmatics Screening Ultra platform.
# [1] = tested on: pERK in SW480 cells (KRAS G12D); assay: Phospho-ERK inhibition (AlphaLISA), SW480; assay type: cell-based, human; conditions: SW480 cells; for SW480 pERK Ymin %: Ymin in brackets; for IC50: class symbol before the bracket
# Procedure: All cancer cell lines (A375, A101D, A2058, RKO, HT29 SK-MEL 30, IPC298, HepG2, HCT-116, Lovo, SWV620, SW480, NCI-H358, NCI-H2122, Calu-6, NCIH2087, NCIH1755, NCIH1666 and Mewo) were obtained from ATCC and cultured in RPMI-1640 medium (Gibco) supplemented with 5% heat inactivated fetal bovine serum (FBS, Wisent) at 37° C. under 5% CO2. Cells were maintained in T175 flasks (Greiner). They were passaged by removing the culture medium, washing once in 10 mL of room temperature Phosphate Buffered Saline (PBS; Wisent) and incubating at 37° C. with 2 mL of 0.05% Trypsin (Thermo-Fisher). Trypsin was then inactivated by adding complete growth medium and the cells were then replated in a T175 culture dish at the appropriate dilution. All cell lines were routinely tested for mycoplasma contamination. Tissue type and mutational status of each cell line can be found in Table B.
# AlphaLISA® SureFire® Ultra™ p-ERK 1/2 (Thr202/Tyr204) analysis was conducted on cells plated in 100 μL of complete RPMI-1640 growth medium in 96-well flat-bottomed transparent dishes (Costar) at a density indicated in Table C. Cells were maintained overnight at 37° C. under 5% CO2 before treatment with compounds' dilution series for one hour. The cell density in cells/cm^2 corresponds to cell number divided by the area of one well of a 96-well plate ([…]).
# In a dilution series 100 μL/well of test substance dilution prepared in complete RPMI-1640 growth media was added to the cells. The dilution series is selected so that ten concentrations cover a range from 10 μM to 0.33 nM. If necessary the initial concentration of 10 μM is increased to 100 μM or lowered to 1 μM (as in the case of A375 and H1666 cells, which are generally more sensitive to the compounds) and further dilution is carried out accordingly. The final concentration of DMSO in the assay is set at 0.5%.
# After treatment, media was removed and cells were lysed in 50 μL of 1× AlphaScreen Ultra Lysis Buffer (Perkin Elmer). The AlphaLISA® SureFire® Ultra™ p-ERK 1/2 (Thr202/Tyr2O4) (PerkinElmer) reactions were performed with 5 μL of cell lysate according to the manufacturer's specifications in 384-well proxyplates (Perkin Elmer) followed by overnight incubation of the reactions at room temperature in a humidified chamber. After completion of the reactions, the signals were recorded on an EnVision plate reader (Perkin Elmer) using built in AlphaLISA® settings.
# The effect of each compound dilution on the pERK signal was expressed in % inhibition and calculated as follows. An internal 100% inhibition control ([…] trametinib, cat #HY-10999; MedChem Express; CAS #871700-17-3) was included in each plate and used as a measure of pERK background. First, the value obtained for trametinib was subtracted from each data point. The average of DMSO (vehicle) controls (set as 0% inhibition) was established and used to calculate % inhibition: % inhibition=100*(1-((pERK signalcompound)/(pERK signalDMSO)))
# The ability of each compound to inhibit pERK signal was expressed as an IC50 value obtained by plotting the inhibition values for each data point of a dilution series and fitting the obtained curves using a log(agonist) versus response-variable slope (four parameters) function using GraphPadPrism (V7.0) or Dotmatics Screening Ultra platform.
# When present, paradoxical pERK induction is inferred from the negative % inhibition values observed in the pERK IC50 curves of a compound.
# CRAF = CRAF (Homo sapiens, UniProt P04049); assay: CRAF kinase activity assay (ADP-Glo); assay type: biochemical
# Procedure: as §1, §2, §3, §4, §5
# [2] = tested on: pERK in HCT-116 cells (KRAS G13D); assay: Phospho-ERK inhibition (AlphaLISA SureFire Ultra p-ERK 1/2), HCT116; assay type: cell-based, human; conditions: for HCT116 pERK % Ymin (lowest value of the IC50 curve): Ymin above −20% = minimal or no paradoxical activation
# Procedure, shortened: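 pERK1/2 (Thr202/Tyr204) AlphaLISA, 1 h cpd, 10 conc. 10 μM→0.33 nM, 0.5% DMSO, RPMI-1640 + 5% FBS. Trametinib = 100%, DMSO = 0%. IC50, 4-param fit.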
# [3] = read-out: Kinase IC50 (nM) BRAF
# [4] = read-out: Kinase IC50 (nM) CRAF
# [5] = HCT116 cells, class symbol before the bracket
# [6] = BRAF, read-out: Kinase IC50 (nM), BRAF biochemical kinase assay
# [7] = CRAF, read-out: Kinase IC50 (nM), CRAF biochemical kinase assay
# [8] = Table 5, read-out: Kinase IC50 (nM) BRAF
# [9] = Table 5, read-out: Kinase IC50 (nM) CRAF
# [10] = lowest value of the curve, HCT116, Table 5
# CRAF, sequence (P04049 whole entry, looked up): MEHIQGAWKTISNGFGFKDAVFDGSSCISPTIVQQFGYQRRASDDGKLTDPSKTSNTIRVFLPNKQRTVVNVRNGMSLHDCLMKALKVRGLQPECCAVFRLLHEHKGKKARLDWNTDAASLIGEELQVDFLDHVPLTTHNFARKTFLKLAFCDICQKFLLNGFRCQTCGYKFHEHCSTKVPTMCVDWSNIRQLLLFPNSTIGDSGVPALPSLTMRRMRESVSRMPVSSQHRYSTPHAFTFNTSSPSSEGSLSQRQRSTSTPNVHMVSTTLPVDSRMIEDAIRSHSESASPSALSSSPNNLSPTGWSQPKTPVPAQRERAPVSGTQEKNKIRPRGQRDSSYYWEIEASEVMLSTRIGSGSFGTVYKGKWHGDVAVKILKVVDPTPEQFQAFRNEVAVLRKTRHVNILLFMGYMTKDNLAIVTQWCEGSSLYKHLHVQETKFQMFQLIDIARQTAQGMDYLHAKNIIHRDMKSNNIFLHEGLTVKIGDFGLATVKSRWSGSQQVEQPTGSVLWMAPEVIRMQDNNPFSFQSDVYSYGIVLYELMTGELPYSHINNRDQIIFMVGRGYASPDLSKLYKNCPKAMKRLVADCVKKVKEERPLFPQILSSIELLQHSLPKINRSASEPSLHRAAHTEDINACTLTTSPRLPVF
# BRAF, sequence (P15056 whole entry): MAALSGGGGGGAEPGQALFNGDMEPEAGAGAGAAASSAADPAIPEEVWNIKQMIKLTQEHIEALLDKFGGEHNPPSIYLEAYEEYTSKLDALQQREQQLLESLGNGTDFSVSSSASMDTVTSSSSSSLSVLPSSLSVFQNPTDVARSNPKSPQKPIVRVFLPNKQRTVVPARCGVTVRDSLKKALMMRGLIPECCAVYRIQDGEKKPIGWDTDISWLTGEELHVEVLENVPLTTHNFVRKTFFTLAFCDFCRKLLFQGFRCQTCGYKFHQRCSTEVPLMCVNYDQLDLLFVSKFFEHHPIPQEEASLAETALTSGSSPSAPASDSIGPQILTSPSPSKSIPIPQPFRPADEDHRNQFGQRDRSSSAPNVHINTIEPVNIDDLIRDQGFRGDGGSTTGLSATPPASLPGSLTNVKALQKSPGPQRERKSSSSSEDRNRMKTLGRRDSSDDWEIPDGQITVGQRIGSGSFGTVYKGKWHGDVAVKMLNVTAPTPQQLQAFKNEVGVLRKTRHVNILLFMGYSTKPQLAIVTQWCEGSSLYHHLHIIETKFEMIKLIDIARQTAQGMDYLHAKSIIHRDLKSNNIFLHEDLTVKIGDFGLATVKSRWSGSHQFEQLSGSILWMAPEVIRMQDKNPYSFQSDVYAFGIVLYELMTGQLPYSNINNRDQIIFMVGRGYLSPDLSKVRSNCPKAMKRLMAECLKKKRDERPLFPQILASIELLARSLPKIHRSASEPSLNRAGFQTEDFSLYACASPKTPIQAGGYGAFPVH
Structure (SMILES),IC50 (BRAF; [6]),IC50 (CRAF; [7]),IC50 ([2]; HCT116 cells),HCT116 pERK % Ymin (lowest value of the IC50 curve) ([2]; HCT116 cells),also measured
COc1ccc(S(=O)(=O)Nc2ccc(F)c(Nc3ncnc4ccc(-c5cncs5)nc34)c2F)c(C)c1 [Ex 59],,,,,"IC50 (BRAF; [3]): > 10 nM; SW480 pERK Ymin % [1]: −4.9%; IC50 [1]: 500 to 1000 nM; IC50 (CRAF; [4]): 10 to 50 nM; HCT116 pERK Ymin % ([2]; HCT116 cells, Ymin in brackets): −0.7%; IC50 [2, 5]: 500 to 1000 nM"
COc1cncc(-c2ccc3ncnc(Nc4c(F)ccc(NS(=O)(=O)c5ccc(OC)cc5C)c4F)c3n2)c1 [Ex 62],,,,,"IC50 (BRAF; [3]): > 10 nM; SW480 pERK Ymin % [1]: 8%; IC50 [1]: 1000 to 10000 nM; IC50 (CRAF; [4]): > 50 nM; HCT116 pERK Ymin % ([2]; HCT116 cells, Ymin in brackets): −9%; IC50 [2, 5]: 1000 to 10000 nM"
Cc1ncn(-c2ccc3ncnc(Nc4c(F)ccc(NS(=O)(=O)c5ccccc5Cl)c4F)c3n2)c1C [Ex 66],,,,,"IC50 (BRAF; [3]): 1 to 10 nM; SW480 pERK Ymin % [1]: −5%; IC50 [1]: 1000 to 10000 nM; IC50 (CRAF; [4]): 10 to 50 nM; HCT116 pERK Ymin % ([2]; HCT116 cells, Ymin in brackets): −2%; IC50 [2, 5]: 1000 to 10000 nM"
O=S(=O)(Nc1ccc(F)c(Nc2ncnc3ccc(-c4cncs4)nc23)c1F)c1ccccc1Cl [Ex 67],,,,,"IC50 (BRAF; [3]): 1 to 10 nM; SW480 pERK Ymin % [1]: −1.3%; IC50 [1]: 500 to 1000 nM; IC50 (CRAF; [4]): 10 to 50 nM; HCT116 pERK Ymin % ([2]; HCT116 cells, Ymin in brackets): −3.6%; IC50 [2, 5]: 500 to 1000 nM"
Cc1ncc(-c2ccc3ncnc(Nc4c(F)ccc(NS(=O)(=O)c5cccc(Cl)c5Cl)c4F)c3n2)[nH]1 [Example 595],1 to 10 nM,10 to 50 nM,1000 to 10000 nM,−16%,
O=S(=O)(Nc1ccc(F)c(Nc2ncnc3ccc(-n4cnc5c(N6C7CCC6CN(CCO)C7)cccc54)nc23)c1F)c1cccc(Cl)c1Cl [Example 629],1 to 10 nM,10 to 50 nM,,−2%,
O=S(=O)(Nc1cccc(Nc2ncnc3ccc(-n4cnc5ccccc54)nc23)c1F)c1cccc(Cl)c1Cl [Example 646],,,,,"IC50 (BRAF; [8]): 1 to 10 nM; IC50 (CRAF; [9]): 10 to 50 nM; IC50 ([2]; HCT116 cells, Table 5): < 500 nM; HCT116 pERK Ymin % [2, 10]: −3%"
O=S(=O)(Nc1cc(F)c(F)c(Nc2ncnc3ccc(-n4cnc5ccccc54)nc23)c1F)c1cccc(Cl)c1Cl [Example 648],,,,,"IC50 (BRAF; [8]): 1 to 10 nM; IC50 (CRAF; [9]): < 10 nM; IC50 ([2]; HCT116 cells, Table 5): < 500 nM; HCT116 pERK Ymin % [2, 10]: −1%"
O=S(=O)(Nc1cc(F)c(F)c(Nc2ncnc3ccc(-n4nnc5ccccc54)nc23)c1F)c1cccc(Cl)c1Cl [Example 649],,,,,"IC50 (BRAF; [8]): 1 to 10 nM; IC50 (CRAF; [9]): < 10 nM; IC50 ([2]; HCT116 cells, Table 5): < 500 nM; HCT116 pERK Ymin % [2, 10]: 3%"
O=S(=O)(Nc1ccc(F)c(Nc2ncnc3ccc(-n4cnc5ccccc54)nc23)c1F)c1ccc(C(F)(F)F)cc1Cl [Example 653],,,,,"IC50 (BRAF; [3]): > 10 nM; IC50 (CRAF; [4]): > 50 nM; IC50 ([2]; HCT116 cells, 1 h treatment): 1000 to 10000 nM; HCT116 pERK Ymin % ([2]; lowest % inhibition value of the IC50 curve, HCT116): −13%"
"O=S(=O)(Nc1ccc(F)c(Nc2ncnc3ccc(-n4cnc5c(C6CCNCC6)cccc54)nc23)c1F)c1cccc(Cl)c1Cl [Example 662, 2,3-dichloro-N-[2,4-difluoro-3-[[6-[4-(4-piperidyl)benzimidazol-1-yl]pyrido[3,2-d]pyrimidin-4-yl]amino]phenyl]benzenesulfonamide]",< 1 nM,,,−6%,"IC50 (CRAF): < 10 nM; IC50 ([2]; Homo sapiens, HCT-116, HCT116 cells): 1000 to 10000 nM"
Cc1c(F)cccc1S(=O)(=O)Nc1ccc(F)c(Nc2ncnc3ccc(-n4ncc5c4CN(C)CC5)nc23)c1F [Example 664],1 to 10 nM,> 50 nM,1000 to 10000 nM,−15%,

# Second part, led by results:
IC50 (BRAF; [6]),IC50 (CRAF; [7]),IC50 ([2]; HCT116 cells),HCT116 pERK % Ymin (lowest value of the IC50 curve) ([2]; HCT116 cells),Structure (SMILES),also measured
1 to 10 nM,< 10 nM,< 500 nM,−2%,N#CC1(c2cccc3c2nnn3-c2ccc3ncnc(Nc4c(F)ccc(NS(=O)(=O)c5cccc(Cl)c5Cl)c4F)c3n2)CC1 [Example 610],
1 to 10 nM,< 10 nM,< 500 nM,−10%,O=S(=O)(Nc1ccc(F)c(Nc2ncnc3ccc(-n4cnc5c(C6(CO)CC6)cccc54)nc23)c1F)c1cccc(Cl)c1Cl [Example 612],
1 to 10 nM,10 to 50 nM,500 to 1000 nM,−3%,CN1CCN(c2ncc(-c3ccc4ncnc(Nc5c(F)ccc(NS(=O)(=O)c6cccc(Cl)c6Cl)c5F)c4n3)s2)CC1 [Example 613],
> 10 nM,10 to 50 nM,< 500 nM,0%,O=S(=O)(Nc1ccc(F)c(Nc2ncnc3ccc(-c4cnc(N5CCOCC5)s4)nc23)c1F)c1cccc(Cl)c1Cl [Example 631],
< 1 nM,< 10 nM,< 500 nM,−2%,O=S(=O)(Nc1ccc(F)c(Nc2ncnc3ccc(-n4cnc5c(N6CCNCC6)cccc54)nc23)c1F)c1cccc(Cl)c1Cl [Example 634],
< 1 nM,< 10 nM,< 500 nM,−5%,O=S(=O)(Nc1ccc(F)c(Nc2ncnc3ccc(-n4cnc5c(N6CCC(O)(CCO)CC6)cccc54)nc23)c1F)c1cccc(Cl)c1Cl [Example 671],
< 1 nM,< 10 nM,< 500 nM,−9%,O=S(=O)(Nc1ccc(F)c(Nc2ncnc3ccc(-n4cnc5c(C6CCN(CCO)CC6)cccc54)nc23)c1F)c1cccc(Cl)c1Cl [Example 681],
< 1 nM,< 10 nM,< 500 nM,−14%,Cc1cn(-c2ccc3ncnc(Nc4c(F)ccc(NS(=O)(=O)c5cccc(Cl)c5Cl)c4F)c3n2)nn1 [Example 684],
1 to 10 nM,10 to 50 nM,< 500 nM,6%,CCC1(O)CCN(c2nccc3c2ncn3-c2ccc3ncnc(Nc4c(F)ccc(NS(=O)(=O)c5cccc(Cl)c5Cl)c4F)c3n2)CC1 [Example 691],

# — patent US12139488B2, “Pyrido[3,2-d]pyrimidine compounds uses thereof for treating a proliferative disease” (Universite de Montreal, priority 2021, dated 2024)
